These results are taken from ChEMBL document CHEMBL4270577, “Synthesis, anticancer activity and molecular modeling studies of 1,2,4-triazole derivatives as EGFR inhibitors” (Eur J Med Chem, 2018).

Assay [1] relates to SK-MEL-5. The experiment in a line: Growth inhibition of human SK-MEL-5 cells at 10 uM incubated for 48 hrs by sulforhodamine B assay relative to control. In kind it is functional. Conditions: SK-MEL-5, 48 h, read-out: GI. (The SRB assay estimates cell density from bound dye.)
The test system of assay [2] is SF-539. Put plainly: Growth inhibition of human SF539 cells at 10 uM incubated for 48 hrs by sulforhodamine B assay relative to control. It is filed as functional. Conditions: SF-539, 48 h, read-out: GI.
The subject of assay [3] is HCT-15. The experiment in a line: Growth inhibition of human HCT15 cells at 10 uM incubated for 48 hrs by sulforhodamine B assay relative to control. Conditions: HCT-15, 48 h, read-out: GI. It is filed as functional.
The target in assay [4] is Epidermal growth factor receptor (Homo sapiens, UniProt P00533). Put plainly: Inhibition of His6-tagged recombinant EGFR cytoplasmic domain (645 to 1186 residues) (unknown origin) expressed in baculovirus infected Sf9 insect cells preincubated for 10 mins followed by ATP-MgCl2 addition and measured after 1 hr by DELFIA/time-resolved fluorometric analysis.
Sequence of Epidermal growth factor receptor (P00533 whole entry, the tested form may be a part): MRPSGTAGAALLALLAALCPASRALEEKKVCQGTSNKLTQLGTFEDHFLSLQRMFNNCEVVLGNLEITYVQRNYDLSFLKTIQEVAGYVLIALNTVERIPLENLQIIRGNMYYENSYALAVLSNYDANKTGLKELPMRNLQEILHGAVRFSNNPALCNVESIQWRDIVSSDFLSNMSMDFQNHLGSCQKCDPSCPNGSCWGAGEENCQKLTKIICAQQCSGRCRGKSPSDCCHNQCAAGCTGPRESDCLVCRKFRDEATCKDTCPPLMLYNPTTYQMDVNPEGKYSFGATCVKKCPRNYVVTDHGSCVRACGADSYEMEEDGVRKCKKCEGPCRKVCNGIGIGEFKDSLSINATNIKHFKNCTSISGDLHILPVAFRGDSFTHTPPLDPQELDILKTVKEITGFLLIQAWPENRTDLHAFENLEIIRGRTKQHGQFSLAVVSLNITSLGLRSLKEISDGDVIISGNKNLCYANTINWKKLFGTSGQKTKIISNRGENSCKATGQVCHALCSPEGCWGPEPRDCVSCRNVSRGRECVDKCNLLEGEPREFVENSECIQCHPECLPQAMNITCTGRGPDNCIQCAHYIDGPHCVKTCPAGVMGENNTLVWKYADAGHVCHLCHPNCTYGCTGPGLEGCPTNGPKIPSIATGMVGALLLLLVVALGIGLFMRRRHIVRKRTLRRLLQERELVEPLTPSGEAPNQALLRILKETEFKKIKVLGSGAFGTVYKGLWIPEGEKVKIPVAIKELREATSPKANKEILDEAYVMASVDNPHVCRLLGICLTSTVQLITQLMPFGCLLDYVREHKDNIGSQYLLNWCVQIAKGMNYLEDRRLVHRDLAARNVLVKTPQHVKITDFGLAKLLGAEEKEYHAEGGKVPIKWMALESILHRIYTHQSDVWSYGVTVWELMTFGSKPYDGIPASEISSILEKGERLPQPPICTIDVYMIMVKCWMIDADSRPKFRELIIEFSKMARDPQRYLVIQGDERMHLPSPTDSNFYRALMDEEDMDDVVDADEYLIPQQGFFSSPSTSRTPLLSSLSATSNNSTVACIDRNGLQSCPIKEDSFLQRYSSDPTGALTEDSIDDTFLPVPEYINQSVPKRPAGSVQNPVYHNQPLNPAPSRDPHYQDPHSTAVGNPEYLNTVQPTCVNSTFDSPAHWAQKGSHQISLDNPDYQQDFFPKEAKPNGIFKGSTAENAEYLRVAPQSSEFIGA
Assay [5] deals with EKVX. The experiment in a line: Growth inhibition of human EKVX cells at 10 uM incubated for 48 hrs by sulforhodamine B assay relative to control. In kind it is functional. Particulars: read-out: GI.
The test system of assay [6] is HOP-62. The experiment in a line: Growth inhibition of human HOP62 cells at 10 uM incubated for 48 hrs by sulforhodamine B assay relative to control. It is filed as functional. Particulars: HOP-62, 48 h, read-out: GI.
Assay [7] concerns Malme-3M. The experiment in a line: Growth inhibition of human MALME-3M cells at 10 uM incubated for 48 hrs by sulforhodamine B assay relative to control. Conditions: read-out: GI. In kind it is functional.
The test system of assay [8] is MDA-MB-435. Put plainly: Growth inhibition of human MDA-MB-435 cells at 10 uM incubated for 48 hrs by sulforhodamine B assay relative to control. Particulars: MDA-MB-435, 48 h, read-out: GI. In kind it is functional.
In assay [9] the test system is BT-549. The experiment in a line: Growth inhibition of human BT549 cells at 10 uM incubated for 48 hrs by sulforhodamine B assay relative to control. In kind it is functional. Conditions: BT-549, 48 h, read-out: GI.
Assay [10] deals with K562. The experiment in a line: Growth inhibition of human K562 cells at 10 uM incubated for 48 hrs by sulforhodamine B assay relative to control. It is filed as functional. Conditions: K562, 48 h, read-out: GI.
Assay [11] relates to COLO 205. Put plainly: Growth inhibition of human COLO205 cells at 10 uM incubated for 48 hrs by sulforhodamine B assay relative to control. In kind it is functional. Particulars: COLO 205, 48 h, read-out: GI.
Assay [12] has as its system HT-29. Put plainly: Antiproliferative activity against human HT-29 cells after 48 hrs by propidium iodide staining-based fluorometric analysis. It is filed as functional, cell-based. Conditions: HT-29, 48 h.
Assay [13] concerns MOLT-4. The experiment in a line: Growth inhibition of human MOLT4 cells at 10 uM incubated for 48 hrs by sulforhodamine B assay relative to control. It is filed as functional. Conditions: MOLT-4, 48 h, read-out: GI.
Assay [14] relates to CCRF-CEM. Put plainly: Growth inhibition of human CCRF-CEM cells at 10 uM incubated for 48 hrs by sulforhodamine B assay relative to control. In kind it is functional. Particulars: read-out: GI.
Assay [15] concerns A549. Put plainly: Growth inhibition of human A549/ATCC cells at 10 uM incubated for 48 hrs by sulforhodamine B assay relative to control. It is filed as functional. Particulars: A549, 48 h, read-out: GI.
For assay [16], the system named is NCI-H522. The experiment in a line: Growth inhibition of human NCI-H522 cells at 10 uM incubated for 48 hrs by sulforhodamine B assay relative to control. In kind it is functional. Particulars: NCI-H522, 48 h, read-out: GI.
Assay [17] concerns RXF 393. Put plainly: Growth inhibition of human RXF393 cells at 10 uM incubated for 48 hrs by sulforhodamine B assay relative to control. It is filed as functional. Particulars: RXF 393, 48 h, read-out: GI.
Assay [18] relates to NCI-H226. Put plainly: Growth inhibition of human NCI-H226 cells at 10 uM incubated for 48 hrs by sulforhodamine B assay relative to control. Particulars: NCI-H226, 48 h, read-out: GI. In kind it is functional.
For assay [19], the system named is A498. Put plainly: Growth inhibition of human A498 cells at 10 uM incubated for 48 hrs by sulforhodamine B assay relative to control. In kind it is functional. Conditions: A498, 48 h, read-out: GI.
Assay [20] concerns LOX IMVI. The experiment in a line: Growth inhibition of human LOXIMVI cells at 10 uM incubated for 48 hrs by sulforhodamine B assay relative to control. In kind it is functional. Conditions: read-out: GI.
The subject of assay [21] is SK-MEL-28. The experiment in a line: Growth inhibition of human SK-MEL-28 cells at 10 uM incubated for 48 hrs by sulforhodamine B assay relative to control. In kind it is functional. Conditions: SK-MEL-28, 48 h, read-out: GI.
Assay [22] relates to HOP-92. Put plainly: Growth inhibition of human HOP92 cells at 10 uM incubated for 48 hrs by sulforhodamine B assay relative to control. In kind it is functional. Particulars: HOP-92, 48 h, read-out: GI.
The test system of assay [23] is NCI-H460. Put plainly: Antiproliferative activity against human H460 cells after 48 hrs by propidium iodide staining-based fluorometric analysis. In kind it is functional, cell-based. Conditions: NCI-H460, 48 h.
Assay [24] deals with SW-620. The experiment in a line: Growth inhibition of human SW620 cells at 10 uM incubated for 48 hrs by sulforhodamine B assay relative to control. In kind it is functional. Particulars: SW-620, 48 h, read-out: GI.
Assay [25] has as its system HT-29. The experiment in a line: Growth inhibition of human HT-29 cells at 10 uM incubated for 48 hrs by sulforhodamine B assay relative to control. In kind it is functional. Conditions: HT-29, 48 h, read-out: GI.
In assay [26] the test system is TK-10. The experiment in a line: Growth inhibition of human TK10 cells at 10 uM incubated for 48 hrs by sulforhodamine B assay relative to control. It is filed as functional. Particulars: TK-10, 48 h, read-out: GI.

Turning to `COc1ccc(-c2nc3sc(-c4ccccc4)cn3n2)cc1`, the inhibition of growth at 10 µM in [1] came out at 65%; in [2], 24%; in assay [3], 69%; in [5], 37%; in assay [6] it was 49%; in assay [7], 32%. The inhibition of growth at 10 µM was -8.6% in assay [8]; 26% in [9]; 76% in assay [10]; 63% in assay [11]; 49% in assay [13]; 35% in [14]. The inhibition of growth at 10 µM was found to be 49% in assay [15]; 70% in assay [16]; 24% in [17]; 23% in assay [18]; 56% in assay [19]; 45% in [20]. In addition, the inhibition of growth at 10 µM in [21] came out at 32%; in assay [22], 32%; in assay [24] it was 64%; in assay [25] it was 70%. Besides, the values for the IC50 in [4], in assay [12] and in assay [23] were 5.6 µM, 6.6 µM and 6.9 µM, respectively.

As for `Clc1ccc(-c2cn3nc(-c4ccccc4)nc3s2)cc1`, the inhibition of growth at 10 µM in assay [1] turned out to be 21%; in assay [2], 21%; in assay [3], 9%; in assay [5], 28%; in assay [6], 40%; in assay [7], 10%. The inhibition of growth at 10 µM in assay [8] was 11%; in [10], 24%; in assay [11], 18%; in assay [13], 8%; in assay [14], 6%; in [15] it was 36%. Further, the inhibition of growth at 10 µM came out at 29% in assay [16]; 39% in assay [17]; 32% in assay [18]; 52% in [19]; 19% in assay [20]; 53% in assay [22]. Also, the figures for the inhibition of growth at 10 µM in assay [26], in assay [24] and in assay [25] were 18%, 13% and 26%, respectively. Further, the IC50 (commonly the concentration that gives 50% inhibition) in assay [4] was 7.2 µM; in [12], 5.9 µM; in assay [23] it was 5.1 µM.

In the case of `c1ccc(-c2nc3sc(-c4ccccc4)cn3n2)cc1`, the inhibition of growth at 10 µM in [1] came to 20%; in [3], 8%; in assay [5], 21%; in [6] it was 33%; in assay [10], 11%; in [11], 5%. The inhibition of growth at 10 µM in [13] is 11%; in assay [14] it was 13%; in assay [15], 10%; in assay [16], 19%; in [17] it was 9%; in assay [18], 27%. The inhibition of growth at 10 µM in assay [19] stood at 13%; in [20] it was 16%; in [22] it was 25%; in assay [24] it was 5%; in [25], 9%. Further, the IC50 was 9.8 µM in [4], 8.4 µM in [12] and 8.3 µM in assay [23].

As for `COc1cc(-c2nc3sc(-c4ccccc4)cn3n2)cc(OC)c1OC`, the inhibition of growth at 10 µM in assay [1] is 41%; in [2] it was 15%; in [3], 42%; in assay [5] it was 63%; in [6], 15%; in assay [8] it was 16%. Besides, the inhibition of growth at 10 µM in assay [9] was found to be 18%; in [10] it was 39%; in [11] it was 15%; in [13], 44%; in assay [14] it was 49%; in assay [15], 23%. Moreover, the inhibition of growth at 10 µM was 30% in assay [16]; 17% in [17]; 23% in [18]; 29% in assay [19]; 33% in assay [20]; 4% in assay [21]. Moreover, the inhibition of growth at 10 µM in assay [22] stood at 50%; in [26], 6%; in [24], 6%; in assay [25], 18%. Moreover, the figures for the IC50 in assay [4], in [12] and in [23] were 2.8 µM, 4.9 µM and 4.8 µM, respectively.
